The record followed here is patent US6916820B1, “Neurotrophic substituted pyrimidines” (Krenitsky Pharmaceuticals, Inc., priority 1999, dated 2005).

For series [1], the system named is choline acetyltransferase (ChAT) activity in PC12 cells. Briefly: Choline acetyltransferase (ChAT) assay in NGF-treated PC12 cells (screen for NGF-like activity). The class given is cell-based, rat. As to conditions: 3 days incubation with test compound, compared with NGF alone. The protocol:
Cultured PC12 cells (rat adrenal pheochromocytoma from ATCC) have receptors for NGF. Responses include promotion of neurite outgrowth and elevation of choline acetyltransferase (ChAT) (L. A. Green and A. S. Tischler, Cell Neurobiol., 3, 373 (1982)).
The following assay is modified from that described in H L White and P W Scates, Neurochem. Res., 16, 63 (1991). PC12 cells were cultured at 37° C. in RPMI supplemented with HEPES buffer, pH 7.5 (to 10 mM), fetal bovine serum, horse serum, glutamine, penicillin, streptomycin and non-essential amino acids. Cultures were split 1:3 every 3 to 4 days. Exponentially dividing cells were plated into fresh medium on collagen-coated 12-well plastic dishes (10^5 cells/well). After allowing one day for cell attachment, the medium was replaced with low serum medium, with or without test compounds with each condition in triplicate. The medium may contain up to 0.2% ethanol, which was used as a solvent for most compounds tested. Cells were examined for morphological changes using an Olympus IMT-2 inverted research microscope. After 3 days incubation with test compounds, medium was removed and replaced with 0.2 ml of lysis and ChAT assay mixture. The plates were incubated at 37° C. for 2 hours and then placed into a freezer at −20° C. […]
The assay mixture contained 100 mM phosphate, pH 7.4, 0.1% NP-40, 150 mM NaCl, 1.5 mM choline, 10 mM EDTA, 0.1 mM eserine, 0.1 mM acetyl-coenzyme A and about 0.5 uCi (40-70 Ci/mol) [14C]acetyl-coenzyme A in each ml of mixture. […] The vials were centrifuged at 3000 rpm (max.=16 cm) for 15 minutes and then counted in a Beckman LS6500 scintillation counter. […]
The following data were obtained for representative compounds of the present invention which (1) increased the activity of choline acetyltransferase ChAT), (2) enhanced NGF-stimulated neurite outgrowth and/or (3) potentiated or appeared additive with the action of NGF itself. The concentration at which the test compound doubled the ChAT activity over the activity with NGF alone (no test compound) was recorded as the EC2x value: […]

Consider `Cl.Nc1ncc(Oc2ccc(Cl)cc2)c(NC2CCC(=O)CC2)n1` [Example 10, 2-amino-5-(4-chlorophenoxy)-4-(4-oxocyclohexylamino)pyrimidine hydrochloride], for which the “EC2x (concentration at which the test compound doubled the ChAT activity over the activity with NGF alone)” value in series [1] amounted to 0.7 µM.
As usually defined, the melting point is the temperature of the solid-liquid transition. On to `Cl.Nc1ncc(Oc2ccc(Cl)cc2Cl)c(N[C@H]2CC[C@H](O)CC2)n1` [Example 5, 2-amino-5-(2,4-dichlorophenoxy)-4-(trans-4-hydroxycyclohexylamino)pyrimidine hydrochloride], for which the melting point was in the range of 138 to 145 °C. For the same compound, the “EC2x (concentration at which the test compound doubled the ChAT activity over the activity with NGF alone)” value in series [1] is 1.2 µM.
Compound `Cl.Nc1ncc(Oc2ccc(Cl)cc2)c(N[C@H]2CC[C@H](O)CC2)n1` came in with a melting point of 155 to 156 °C.
In turn, `Nc1ncc(Oc2ccc(Cl)cc2)c(N[C@H]2CC[C@H](O)CC2)n1` [Example 3, 2-amino-5-(4-chlorophenoxy)-4-(trans-4-hydroxycyclohexylamino)pyrimidine] gave a melting point of 154 to 155 °C. The “EC2x (concentration at which the test compound doubled the ChAT activity over the activity with NGF alone)” value in series [1] amounted to 0.4 µM.
